# Assay results taken from patent publication US8735398B2 (Bristol-Myers Squibb Company, priority 2009, dated 2014).
# Read-outs that look alike come from different tables or passages of the source.
# Test system: HCV 1b genotype
# Assay: HCV replicon assay (HCV-neo replicon cells, wild-type)
# Type: cell-based, Hepatitis C virus
# Conditions: HCV 1b genotype replicon
# Outline: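 HCV-neo replicon cells (wild-type) and replicon cells carrying NS5A resistance substitutions were treated with compounds; assay per O'Boyle et al. 2005, with luciferase-reporter read-out variants also used.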
# [1] = class symbol, read-out: EC50 Range against HCV 1b
# [2] = Hepatitis C virus, class symbols, read-out: EC50 Range against HCV 1b
# [3] = Hepatitis C virus, class symbol, read-out: EC50 Range against HCV 1b
# [4] = Hepatitis C virus, read-out: EC50 1b
SMILES,EC50 [3] [nM],other results
"O=C(Nc1ccc(-c2cnc(-c3ccc(NC(=O)[C@@H]4C[C@@H]5C[C@@H]5N4C(=O)[C@H](O)c4ccccc4)cc3)o2)cc1)[C@@H]1C[C@@H]2C[C@@H]2N1C(=O)[C@H](O)c1ccccc1 [CB-6, (1S,3S,5S,1′S,3′S,5′S)-N,N′-(1,3-oxazole-2,5-diyldi-4,1-phenylene)bis(2-((2R)-2-hydroxy-2-phenylacetyl)-2-azabicyclo[3.1.0]hexane-3-carboxamide)]",,EC50 [1]: < 4.57 nM
"C[C@H](NC(=O)c1cc(Cl)ccn1)C(=O)Nc1ccc(-c2nnc(-c3ccc(NC(=O)[C@H](C)NC(=O)c4cc(Cl)ccn4)cc3)o2)cc1 [RK-37, N,N′-(1,3,4-oxadiazole-2,5-diylbis(4,1-phenyleneimino((2S)-1-oxo-1,2-propanediyl)))bis(4-chloro-2-pyridinecarboxamide)]",,EC50 [2]: 1000 to 10000 nM
"C[C@H](NC(=O)[C@](C)(O)c1ccccc1)C(=O)Nc1ccc(-c2nnc(-c3ccc(NC(=O)[C@H](C)NC(=O)[C@](C)(O)c4ccccc4)cc3)o2)cc1 [RK-31, (2R,2′R)-N,N′-(1,3,4-oxadiazole-2,5-diylbis(4,1-phenyleneimino((2S)-1-oxo-1,2-propanediyl)))bis(2-hydroxy-2-phenylpropanamide)]",100 to 999,
"O=C(Nc1ccc(-c2ccc(-c3ccc(NC(=O)[C@@H]4CCCN4C(=O)OCc4ccccc4)cc3)s2)cc1)[C@@H]1CCCN1C(=O)OCc1ccccc1 [OL-23, (2S,2′S)-2,2′-[2,5-thienediylbis(4,1-phenyleneiminocarbonyl)]bis-1-pyrrolidinecarboxylic acid, bis(phenylmethyl) ester]",4.57 to 99,
"COc1cccc2c(C(=O)N[C@@H](C)C(=O)Nc3ccc(-c4nnc(-c5ccc(NC(=O)[C@H](C)NC(=O)c6nc(Cl)cc7c(OC)cccc67)cc5)o4)cc3)nc(Cl)cc12 [RK-33, N,N′-(1,3,4-oxadiazole-2,5-diylbis(4,1-phenyleneimino((2S)-1-oxo-1,2-propanediyl)))bis(3-chloro-5-methoxy-1-isoquinolinecarboxamide)]",,EC50 [2]: 100 to 999 nM
"CC(=O)N1CCC[C@H]1C(=O)Nc1ccc(-c2nc(-c3ccc(NC(=O)C4CC(=O)N(CCc5cccs5)C4)cc3)cs2)cc1 (stereo partly drawn) [Example D-46, (2S)-1-acetyl-N-[4-[4-[4-[[[5-oxo-1-[2-(2-thienyl)ethyl]-3-pyrrolidinyl]carbonyl]amino]phenyl]-2-thiazolyl]phenyl]-2-pyrrolidinecarboxamide]",1000 to 10000,
"O=C(Nc1ccc(-c2nnc(-c3ccc(NC(=O)[C@@H]4CCCCN4C(=O)OCc4ccccc4)cc3)o2)cc1)[C@@H]1CCCCN1C(=O)OCc1ccccc1 [RK-4, dibenzyl (2S,2′S)-2,2′-(1,3,4-oxadiazole-2,5-diylbis(4,1-phenylenecarbamoyl))di(1-piperidinecarboxylate)]",100 to 999,
"O=C(Nc1ccc(-c2ccc(-c3ccc(NC(=O)[C@@H]4CCCN4C(=O)c4nccc5ccccc45)cc3)o2)cc1)[C@@H]1CCCN1C(=O)c1nccc2ccccc12 [JG-62, (2S,2′S)-N,N′-(2,5-furandiyldi-4,1-phenylene)bis(1-(1-isoquinolinylcarbonyl)-2-pyrrolidinecarboxamide)]",100 to 999,
"O=C(Nc1ccc(-c2cnc(-c3ccc(NC(=O)[C@@H]4C[C@@H](O)CN4C(=O)C4CCCCC4)cc3)o2)cc1)[C@@H]1C[C@@H](O)CN1C(=O)C1CCCCC1 [XY-48, (2S,4R,2′S,4′R)-N,N′-(1,3-oxazole-2,5-diyldi-4,1-phenylene)bis(1-(cyclohexylcarbonyl)-4-hydroxy-2-pyrrolidinecarboxamide)]",,EC50 [2]: 1000 to 10000 nM
"O=C(Nc1ccc(-c2nnc(-c3ccc(NC(=O)[C@@H]4CCC(=O)N4C(=O)OCc4ccccc4)cc3)o2)cc1)[C@@H]1CCC(=O)N1C(=O)OCc1ccccc1 [RK-2, dibenzyl (2S,2′S)-2,2′-(1,3,4-oxadiazole-2,5-diylbis(4,1-phenylenecarbamoyl))bis(5-oxo-1-pyrrolidinecarboxylate)]",1000 to 10000,
"CC(C)(C)OC(=O)N1C(C(=O)N2CCCC2C(=O)Nc2ccc(-c3cnc(-c4ccc(NC(=O)C5CCCN5C(=O)C5CC6CC6N5C(=O)OC(C)(C)C)cc4)o3)cc2)CC2CC21 [Example D-31, di-tert-butyl (1S,3S,5S,1′S,3′S,5′S)-3,3′-(1,3-oxazole-2,5-diylbis(4,1-phenylenecarbamoyl(2S)-2,1-pyrrolidinediylcarbonyl))bis(2-azabicyclo[3.1.0]hexane-2-carboxylate)]",,EC50 [1]: 1000 to 10000 nM
"Cn1cccc1C(=O)N1C[C@H](OC(C)(C)C)C[C@H]1C(=O)Nc1ccc(-c2cnc(-c3ccc(NC(=O)[C@@H]4C[C@@H](OC(C)(C)C)CN4C(=O)c4cccn4C)cc3)o2)cc1 [XY-71, (2S,4R,2′S,4′R)-N,N′-(1,3-oxazole-2,5-diyldi-4,1-phenylene)bis(4-tert-butoxy-1-((1-methyl-1H-pyrrol-2-yl)carbonyl)-2-pyrrolidinecarboxamide)]",,EC50 [2]: 1000 to 10000 nM
"O=C(Nc1ccc(-c2cnc(-c3ccc(NC(=O)[C@@H]4CCCN4C(=O)c4cccc(F)n4)cc3)o2)cc1)[C@@H]1CCCN1C(=O)c1cccc(F)n1 [OL-50, (2S,2′S)-N,N′-(1,3-oxazole-2,5-diyldi-4,1-phenylene)bis(1-((6-fluoro-2-pyridinyl)carbonyl)-2-pyrrolidinecarboxamide)]",100 to 999,
"CC(=O)N1CCC[C@H]1C(=O)Nc1ccc(-c2nc(-c3ccc(NC(=O)[C@@H]4C=CCN4C(=O)c4ccccc4)cc3)cs2)cc1 [Example D-53, (2S)-N-[4-[2-[4-[[[(2S)-1-acetyl-2-pyrrolidinyl]carbonyl]amino]phenyl]-4-thiazolyl]phenyl]-1-benzoyl-2,5-dihydro-1H-pyrrole-2-carboxamide]",1000 to 10000,EC50 [4]: 1130 nM
"C[C@](O)(C(=O)N1CCC[C@H]1C(=O)Nc1ccc(-c2ccc(-c3ccc(NC(=O)[C@@H]4CCCN4C(=O)[C@](C)(O)c4ccccc4)cc3)o2)cc1)c1ccccc1 [JG-58, (2S,2′S)-N,N′-(2,5-furandiyldi-4,1-phenylene)bis(1-((2R)-2-hydroxy-2-phenylpropanoyl)-2-pyrrolidinecarboxamide)]",4.57 to 99,
"COc1cccc2c(C(=O)N3CCC[C@H]3C(=O)Nc3ccc(-c4cnc(-c5ccc(NC(=O)[C@@H]6CCCN6C(=O)c6nc(Cl)cc7c(OC)cccc67)cc5)o4)cc3)nc(Cl)cc12 [OL-52, (2S,2′S)-N,N′-(1,3-oxazole-2,5-diyldi-4,1-phenylene)bis(1-((3-chloro-5-methoxy-1-isoquinolinyl)carbonyl)-2-pyrrolidinecarboxamide)]",100 to 999,EC50 [4]: 30 nM
"O=C(Nc1ccc(-c2cc(-c3ccc(NC(=O)[C@@H]4CCCN4C(=O)OCc4ccccc4)cc3)[nH]n2)cc1)[C@@H]1CCCN1C(=O)OCc1ccccc1 [OL-26, (2S,2′S)-2,2′-[1H-pyrazole-3,5-diylbis(4,1-phenyleneiminocarbonyl)]bis-1-pyrrolidinecarboxylic acid, bis(phenylmethyl) ester]",4.57 to 99,
"CC(C)(C)O[C@@H]1C[C@@H](C(=O)Nc2ccc(-c3cnc(-c4ccc(NC(=O)[C@@H]5C[C@@H](OC(C)(C)C)CN5C(=O)C5CC5)cc4)o3)cc2)N(C(=O)C2CC2)C1 [XY-74, (2S,4R,2′S,4′R)-N,N′-(1,3-oxazole-2,5-diyldi-4,1-phenylene)bis(4-tert-butoxy-1-(cyclopropylcarbonyl)-2-pyrrolidinecarboxamide)]",,EC50 [2]: 100 to 999 nM
"Cn1cncc1C(O)C(=O)N1CCC[C@H]1C(=O)Nc1ccc(-c2cnc(-c3ccc(NC(=O)[C@@H]4CCCN4C(=O)C(O)c4cncn4C)cc3)o2)cc1 (stereo partly drawn) [JR-3, (2S,2′S)-N,N′-(2,5-oxazolediyldi-4,1-phenylene)bis[1-[hydroxy(1-methyl-1H-imidazol-5-yl)acetyl]-2-pyrrolidinecarboxamide]]",,EC50 [2]: 100 to 999 nM
"CO[C@H](C(=O)N1CCC[C@H]1C(=O)Nc1ccc(-c2cnc(-c3ccc(NC(=O)[C@@H]4CCCN4C(=O)[C@@H](OC)c4ccccc4)cc3)o2)cc1)c1ccccc1 [JG-19, (2S,2′S)-N,N′-(1,3-oxazole-2,5-diyldi-4,1-phenylene)bis(1-((2S)-2-methoxy-2-phenylacetyl)-2-pyrrolidinecarboxamide)]",4.57 to 99,EC50 [4]: 9 nM
"C[C@H](NC(=O)Cc1ccccc1)C(=O)Nc1ccc(-c2nc[nH]c2-c2ccc(NC(=O)[C@H](C)NC(=O)Cc3ccccc3)cc2)cc1 [OL-9, (2S,2′S)-N,N′-(1H-imidazole-4,5-diyldi-4,1-phenylene)bis(2-((phenylacetyl)amino)propanamide)]",1000 to 10000,
"O=C(Nc1ccc(-c2cnc(-c3ccc(NC(=O)[C@@H]4CCCN4C(=O)CN4C(=O)OC[C@H]4c4ccccc4)cc3)o2)cc1)[C@@H]1CCCN1C(=O)CN1C(=O)OC[C@H]1c1ccccc1 [JR-21, (2S,2′S)-N,N′-(2,5-oxazolediyldi-4,1-phenylene)bis[1-[[(4R)-2-oxo-4-phenyl-3-oxazolidinyl]acetyl]-2-pyrrolidinecarboxamide]]",,EC50 [2]: 1000 to 10000 nM
"Cn1nc(-c2ccc(NC(=O)[C@@H]3CCCN3C(=O)C3CC3)cc2)cc1-c1ccc(NC(=O)[C@@H]2CCCN2C(=O)C2CC2)cc1 [FY-4, (2S,2′S)-N,N′-((1-methyl-1H-pyrazole-3,5-diyl)di-4,1-phenylene)bis(1-(cyclopropylcarbonyl)-2-pyrrolidinecarboxamide)]",1000 to 10000,
"O=C(Nc1ccc(-c2cnc(-c3ccc(NC(=O)[C@@H]4CCCN4C(=O)C(O)c4c[nH]c5cnccc45)cc3)o2)cc1)[C@@H]1CCCN1C(=O)C(O)c1c[nH]c2cnccc12 (stereo partly drawn) [Example D-17, (2S,2′S)-N,N′-(4,4′-(oxazole-2,5-diyl)bis(4,1-phenylene))bis(1-(2-hydroxy-2-(1H-pyrrolo[2,3-c]pyridin-3-yl)acetyl)pyrrolidine-2-carboxamide)]",,EC50 [1]: 1000 to 10000 nM; EC50 (read-out: EC50 1b): 6820 nM
"O=C(Nc1ccc(-c2nnc(-c3ccc(NC(=O)[C@@H]4CCCN4C(=O)c4nc(Cl)cc5ccccc45)cc3)o2)cc1)[C@@H]1CCCN1C(=O)c1nc(Cl)cc2ccccc12 [RK-18, (2S,2′S)-N,N′-(1,3,4-oxadiazole-2,5-diyldi-4,1-phenylene)bis(1-((3-chloro-1-isoquinolinyl)carbonyl)-2-pyrrolidinecarboxamide)]",1000 to 10000,
